For one test, the system named is Mus musculus. The test can be described thus: In vivo inhibition of L1210 murine leukemia, expressed as optimal non toxic dose (CD2F1 mice were given an injection of […] i.p. and treated on day 1). The test is classed as functional.
In the next test the test system is L1210. As to the kind of experiment: In vitro inhibition of L1210 murine leukemia (Drug sensitivity was determined by counting surviving cells after 48 hr of continuous exposure to at least 4 conc. of drug). The class given is functional, cell-based. The following applies: Mus musculus, L1210, 48 h.

As a reminder, the IC50 is the midpoint of a concentration-inhibition curve. A low value points to greater potency in that assay.

Turning to `Cl.Cn1cc(NC(=O)c2cc(NC(=O)c3cc(NC(=O)c4ccc(N(CCCl)CCCl)cc4)cn3C)cn2C)cc1C(=O)NCCC(=N)N` [TALLIMUSTINE CHLORIDE], the OD with Mus musculus worked out at 3.13 mg/kg.
Consider `C=C(Br)C(=O)Nc1cn(C)c(C(=O)Nc2cc(C(=O)Nc3cc(C(=O)Nc4cc(C(=O)NCCC(=N)N)n(C)c4)n(C)c3)n(C)c2)n1.Cl`, for which the OD in the test on Mus musculus worked out at 6.25 mg/kg.
The same measure, in the same setting: as for `C=C(Br)C(=O)Nc1cc(C(=O)Nc2cc(C(=O)Nc3cc(C(=O)Nc4cc(C(=O)NCCC(=N)N)n(C)c4)n(C)c3)n(C)c2)n(C)n1.Cl`, the figure is 6.25 mg/kg.
In turn, `Cl.Cn1cc(NC(=O)c2cc(NC(=O)c3cc(NC(=O)c4nc(NC(=O)c5ccc(N(CCCl)CCCl)cc5)cn4C)cn3C)cn2C)cc1C(=O)NCCC(=N)N` returned a half-inhibitory concentration (IC50) in the test with L1210 of 2 µg/mL. The OD in the test on Mus musculus came to 6.25 mg/kg.
On the same counts, the results for `Cl.Cn1cc(NC(=O)c2cc(NC(=O)c3cc(NC(=O)c4cc(NC(=O)c5ccc(N(CCCl)CCCl)cc5)nn4C)cn3C)cn2C)cc1C(=O)NCCC(=N)N` are 0.0291 µg/mL and 3.13 mg/kg.

Source of the values: ChEMBL document CHEMBL1149967, “Synthesis and antitumor activity of novel distamycin derivatives” (Bioorg Med Chem Lett, 1996).
